The values that follow come from ChEMBL document CHEMBL1130210, “Steroidal glycoside cholesterol absorption inhibitors” (1997).

The experiment relates to Cricetinae gen. sp. Put plainly: Ability to inhibit the intestinal absorption of [3H]cholesterol in cholesterol-fed hamsters. The class given is functional.

Each structure is given as a SMILES string.

As to `C[C@@H]1CC[C@@]2(OC1)OC1CC3C4CC[C@H]5C[C@@H](O[C@@H]6O[C@@H](CO)[C@@H](O[C@@H]7O[C@@H](COC(=O)Nc8ccc(Cl)cc8)[C@@H](O)[C@H](O)[C@@H]7O)[C@H](O)[C@@H]6O)CC[C@]5(C)C4C(=O)C[C@]3(C)C1[C@@H]2C` (stereo partly specified), the median effective dose (ED50) (as a rule, the midpoint of the dose-response relation) was found to be 1 mg/kg. `CC1CC[C@@]2(OC1)OC1C[C@H]3[C@@H]4CC[C@H]5C[C@@H](OC6OC(CI)C(OC7OC(CI)C(O)C(O)C7O)C(O)C6O)CC[C@]5(C)[C@H]4C(=O)C[C@]3(C)C1[C@@H]2C` (stereo partly specified): it took a dose of 1.5 mg/kg to reach the 50% effect level (ED50). This ED50 lies about 1.5-fold higher than the previous one. The result for `C[C@@H]1CC[C@@]2(OC1)OC1CC3C4CC[C@H]5C[C@@H](O[C@@H]6O[C@@H](CO)[C@@H](O[C@@H]7O[C@@H](COC(=O)NCc8ccccc8)[C@@H](OC(=O)NCc8ccccc8)[C@H](O)[C@@H]7O)[C@H](O)[C@@H]6O)CC[C@]5(C)C4C(=O)C[C@]3(C)C1[C@@H]2C` (stereo partly specified) reads 0.3 mg/kg; that for `C[C@@H]1CC[C@@]2(OC1)OC1CC3C4CC[C@H]5C[C@@H](O[C@@H]6O[C@@H](CO)[C@@H](O[C@@H]7O[C@@H](COC(=O)Nc8ccc(F)cc8F)[C@@H](O)[C@H](O)[C@@H]7O)[C@H](O)[C@@H]6O)CC[C@]5(C)C4C(=O)C[C@]3(C)C1[C@@H]2C` (stereo partly specified), 0.25 mg/kg. As for `CC1CC[C@@]2(OC1)OC1C[C@H]3[C@@H]4CC[C@H]5C[C@@H](OC6OC(CF)C(OC7OC(CF)C(O)C(O)C7O)C(O)C6O)CC[C@]5(C)[C@H]4C(=O)C[C@]3(C)C1[C@@H]2C` (stereo partly specified), the figure is 0.7 mg/kg. The result for `C[C@@H]1CC[C@@]2(OC1)OC1CC3C4CC[C@H]5C[C@@H](O[C@@H]6O[C@@H](CO)[C@@H](O[C@@H]7O[C@@H](COC(=O)Nc8ccc(F)cc8F)[C@@H](OC(=O)Nc8ccc(F)cc8F)[C@H](O)[C@@H]7O)[C@H](O)[C@@H]6O)CC[C@]5(C)C4C(=O)C[C@]3(C)C1[C@@H]2C` (stereo partly specified) reads 0.04 mg/kg.

With `C[C@@H]1CC[C@@]2(OC1)O[C@H]1C[C@H]3[C@@H]4CC[C@H]5C[C@@H](O[C@@H]6O[C@H](CO)[C@H](O)[C@H](O)[C@H]6O)CC[C@]5(C)[C@H]4C(=O)C[C@]3(C)[C@H]1[C@@H]2C`, it took a dose of 12 mg/kg to reach the 50% effect level (ED50). The result for `CC1CC[C@@]2(OC1)OC1C[C@H]3[C@@H]4CC[C@H]5C[C@@H](O[C@@H]6O[C@@H](CO)C(O[C@@H]7O[C@@H](COC(=O)Nc8ccccc8Cl)[C@@H](OC(=O)Nc8ccccc8Cl)[C@H](O)[C@@H]7O)[C@@H](O)[C@@H]6O)CC[C@]5(C)[C@H]4C(=O)C[C@]3(C)C1[C@@H]2C` (stereo partly specified) reads 1 mg/kg; that for `CC1CC[C@@]2(OC1)OC1C[C@H]3[C@@H]4CC[C@H]5C[C@@H](OC6OC(C)C(OC7OC(C)C(O)C(O)C7O)C(O)C6O)CC[C@]5(C)[C@H]4C(=O)C[C@]3(C)C1[C@@H]2C` (stereo partly specified), 6.5 mg/kg; that for `C[C@@H]1CC[C@@]2(OC1)OC1CC3C4CC[C@H]5C[C@@H](O[C@@H]6O[C@@H](COC(=O)Nc7ccccc7)[C@@H](O[C@@H]7O[C@@H](COC(=O)Nc8ccccc8)[C@@H](O)[C@H](O)[C@@H]7O)[C@H](O)[C@@H]6O)CC[C@]5(C)C4C(=O)C[C@]3(C)C1[C@@H]2C` (stereo partly specified), 5 mg/kg. `Cc1ccccc1NC(=O)OC[C@@H]1O[C@@H](O[C@H]2[C@H](O)[C@H](O)[C@H](O[C@H]3CC[C@]4(C)C5C(=O)C[C@@]6(C)C(CC7O[C@]8(CC[C@@H](C)CO8)[C@@H](C)C76)C5CC[C@H]4C3)O[C@H]2CO)[C@@H](O)[C@@H](O)[C@@H]1O` (stereo partly specified) had an ED50 of 0.5 mg/kg. The result for `CCOC(=O)CNC(=O)OC[C@@H]1O[C@@H](O[C@H]2[C@H](O)[C@H](O)[C@H](O[C@H]3CC[C@]4(C)C5C(=O)C[C@@]6(C)C(CC7O[C@]8(CC[C@@H](C)CO8)[C@@H](C)C76)C5CC[C@H]4C3)O[C@H]2CO)[C@@H](O)[C@@H](O)[C@@H]1OC(=O)NCC(=O)OCC` (stereo partly specified) reads 0.6 mg/kg; that for `C[C@@H]1CC[C@@]2(OC1)OC1CC3C4CC[C@H]5C[C@@H](O[C@@H]6O[C@@H](CO)[C@@H](O[C@@H]7O[C@@H](COC(=O)Nc8ccccc8)[C@@H](OC(=O)Nc8ccccc8)[C@H](O)[C@@H]7O)[C@H](O)[C@@H]6O)CC[C@]5(C)C4C(=O)C[C@]3(C)C1[C@@H]2C` (stereo partly specified), 0.1 mg/kg. The result for `C[C@@H]1CC[C@@]2(OC1)O[C@H]1C[C@H]3[C@@H]4CC[C@H]5C[C@@H](O[C@@H]6O[C@@H](CO)[C@@H](O[C@@H]7O[C@@H](CO)[C@@H](O)[C@H](O)[C@@H]7O)[C@H](O)[C@@H]6O)CC[C@]5(C)[C@H]4CC(=O)[C@]3(C)[C@H]1[C@@H]2C` [CELLOBIOSYL HECOGENIN] reads 10 mg/kg; that for `C[C@@H]1CC[C@@]2(OC1)O[C@H]1C[C@H]3[C@@H]4CC=C5C[C@@H](O[C@@H]6O[C@@H](CO)[C@@H](O[C@@H]7O[C@@H](CO)[C@@H](O)[C@H](O)[C@@H]7O)[C@H](O)[C@@H]6O)CC[C@]5(C)[C@H]4CC[C@]3(C)[C@H]1[C@@H]2C`, 100 mg/kg; that for `C[C@@H]1CC[C@@]2(OC1)OC1CC3C4CC[C@H]5C[C@@H](O[C@@H]6O[C@@H](COC(=O)Nc7ccccc7F)[C@@H](O[C@@H]7O[C@@H](CO)[C@@H](O)[C@H](O)[C@@H]7O)[C@H](O)[C@@H]6O)CC[C@]5(C)C4C(=O)C[C@]3(C)C1[C@@H]2C` (stereo partly specified), 7 mg/kg. The result for `C[C@@H]1CC[C@@]2(OC1)OC1CC3C4CC[C@H]5C[C@@H](O[C@@H]6O[C@@H](CO)[C@@H](O[C@@H]7O[C@@H](COC(=O)N8CCCC8)[C@@H](O)[C@H](O)[C@@H]7O)[C@H](O)[C@@H]6O)CC[C@]5(C)C4C(=O)C[C@]3(C)C1[C@@H]2C` (stereo partly specified) reads 1.5 mg/kg; that for `C[C@@H]1CC[C@@]2(OC1)OC1CC3C4CC[C@H]5C[C@@H](O[C@@H]6O[C@@H](CO)[C@@H](O[C@@H]7O[C@@H](COC(=O)NCc8ccccc8)[C@@H](O)[C@H](O)[C@@H]7O)[C@H](O)[C@@H]6O)CC[C@]5(C)C4C(=O)C[C@]3(C)C1[C@@H]2C` (stereo partly specified), 5 mg/kg; that for `C[C@@H]1CC[C@@]2(OC1)OC1CC3C4CC[C@H]5C[C@@H](O[C@@H]6O[C@@H](CO)[C@@H](O[C@@H]7O[C@@H](COC(=O)Nc8c(Cl)cccc8Cl)[C@@H](O)[C@H](O)[C@@H]7O)[C@H](O)[C@@H]6O)CC[C@]5(C)C4C(=O)C[C@]3(C)C1[C@@H]2C` (stereo partly specified), 0.2 mg/kg.

`C[C@]12CC[C@H](O[C@@H]3O[C@@H](CO)[C@@H](O[C@@H]4O[C@@H](CO)[C@@H](O)[C@H](O)[C@@H]4O)[C@H](O)[C@@H]3O)C[C@@H]1CC[C@@H]1[C@@H]2CC[C@]2(C)C(=O)CC[C@@H]12` yielded a 50% effective dose (ED50) of 25 mg/kg. This ED50 lies about 120-fold higher than the previous one. Compound `C[C@@H]1CC[C@@]2(OC1)OC1CC3C4CC[C@H]5C[C@@H](O[C@@H]6O[C@@H](CO)[C@@H](O[C@@H]7O[C@@H](COC(=O)NCCc8ccccc8)[C@@H](O)[C@H](O)[C@@H]7O)[C@H](O)[C@@H]6O)CC[C@]5(C)C4C(=O)C[C@]3(C)C1[C@@H]2C` (stereo partly specified) came in with a median effective dose (ED50) of 5 mg/kg. Compared with the last compound, the ED50 is about 5-fold lower. The result for `CC1CC[C@@]2(OC1)OC1C[C@H]3[C@@H]4CC[C@H]5C[C@@H](O[C@@H]6O[C@@H](CO)[C@@H](O[C@@H]7O[C@@H](COC(=O)N8CCOCC8)[C@@H](OC(=O)N8CCOCC8)[C@H](O)C7O)[C@H](O)[C@@H]6O)CC[C@]5(C)[C@H]4C(=O)C[C@]3(C)C1[C@@H]2C` (stereo partly specified) reads 4 mg/kg. As for `C[C@@H]1CC[C@@]2(OC1)OC1CC3C4CC[C@H]5C[C@@H](O[C@@H]6O[C@@H](CO)[C@@H](O[C@@H]7O[C@@H](COC(=O)Nc8ccccc8F)[C@@H](OC(=O)Nc8ccccc8F)[C@H](O)[C@@H]7O)[C@H](O)[C@@H]6O)CC[C@]5(C)C4C(=O)C[C@]3(C)C1[C@@H]2C` (stereo partly specified), the figure is 0.025 mg/kg; as for `C[C@@H]1CC[C@@]2(OC1)OC1CC3C4CC[C@H]5C[C@@H](O[C@@H]6O[C@@H](CO)[C@@H](O[C@@H]7O[C@@H](COC(=O)NCc8ccco8)[C@@H](OC(=O)NCc8ccco8)[C@H](O)[C@@H]7O)[C@H](O)[C@@H]6O)CC[C@]5(C)C4C(=O)C[C@]3(C)C1[C@@H]2C` (stereo partly specified), 0.3 mg/kg; as for `C[C@@H]1CC[C@@]2(OC1)OC1CC3C4CC[C@H]5C[C@@H](O[C@@H]6O[C@@H](COC(=O)Nc7ccc(Cl)cc7)[C@@H](O[C@@H]7O[C@@H](COC(=O)Nc8ccc(Cl)cc8)[C@@H](O)[C@H](O)[C@@H]7O)[C@H](O)[C@@H]6O)CC[C@]5(C)C4C(=O)C[C@]3(C)C1[C@@H]2C` (stereo partly specified), 5 mg/kg. As for `C[C@@H]1CC[C@@]2(OC1)OC1CC3C4CC[C@H]5C[C@@H](O[C@@H]6O[C@@H](COC(=O)Nc7ccccc7F)[C@@H](O[C@@H]7O[C@@H](COC(=O)Nc8ccccc8F)[C@@H](O)[C@H](O)[C@@H]7O)[C@H](O)[C@@H]6O)CC[C@]5(C)C4C(=O)C[C@]3(C)C1[C@@H]2C` (stereo partly specified), the figure is 0.8 mg/kg; as for `C[C@H]1CC[C@@]2(OC1)O[C@H]1C[C@H]3[C@@H]4CC[C@@H]5C[C@@H](O[C@@H]6O[C@@H](CO)[C@@H](O[C@@H]7O[C@@H](CO)[C@@H](O)[C@H](O)[C@@H]7O)[C@H](O)[C@@H]6O)CC[C@]5(C)[C@H]4CC[C@]3(C)C1[C@@H]2C` (stereo partly specified), 75 mg/kg; as for `C[C@@H]1CC[C@@]2(OC1)OC1CC3C4CC[C@H]5C[C@@H](O[C@@H]6O[C@@H](COC(=O)Nc7c(Cl)cccc7Cl)[C@@H](O[C@@H]7O[C@@H](COC(=O)Nc8c(Cl)cccc8Cl)[C@@H](O)[C@H](O)[C@@H]7O)[C@H](O)[C@@H]6O)CC[C@]5(C)C4C(=O)C[C@]3(C)C1[C@@H]2C` (stereo partly specified), 0.4 mg/kg. Consider `C[C@@H]1CC[C@@]2(OC1)O[C@H]1C[C@H]3[C@@H]4CC[C@H]5C[C@@H](O[C@@H]6O[C@H](CO)[C@@H](O)[C@H](O)[C@H]6O)CC[C@]5(C)[C@H]4C(=O)C[C@]3(C)[C@H]1[C@@H]2C`, for which the 50% effective dose (ED50) was 16 mg/kg. As for `CC(C)CCC[C@@H](C)C1CC[C@H]2[C@@H]3CC[C@H]4C[C@@H](O[C@@H]5O[C@@H](CO)[C@@H](O[C@@H]6O[C@@H](CO)[C@@H](O)[C@H](O)[C@@H]6O)[C@H](O)[C@@H]5O)CC[C@]4(C)[C@H]3CC[C@]12C` (stereo partly specified), the figure is 150 mg/kg. As for `CCOCOC[C@@H]1O[C@@H](O[C@H]2[C@H](O)[C@H](O)[C@H](O[C@H]3CC[C@]4(C)C5C(=O)C[C@@]6(C)C(CC7O[C@]8(CC[C@@H](C)CO8)[C@@H](C)C76)C5CC[C@H]4C3)O[C@H]2COCOCC)[C@@H](O)[C@@H](O)[C@@H]1O` (stereo partly specified), the figure is 3 mg/kg.
